Experimental findings from publication PMC3878488, “Biarsenical ligands bind to endogenous G-protein α-subunits and enable allosteric sensing of nucleotide binding” (BMC Biochemistry, 2013) are described below.

The structures appear in SMILES notation.

Common to all, as to assay: F2FlAsH fluorescence anisotropy, nucleotide titration
Assay type in all cases: binding
On the technique in general: Polarisation of emitted light reports the rotation of a fluorescent probe.

The test system of assay [1] is T1, α13 + βγM (F2FlAsH-labeled).
T1 construct: gene GNA13; wild-type alpha (Kerafast, purified by GST-Ric8 association), reconstituted with beta1 / StrepII- and CCKACC-tagged gamma2 from Sf9
The conditions noted are these: pH 7.8, 28°C, 2 mM MgCl2, 1 mM EDTA, 14 h; 15 nM F2FlAsH allosteric label. From the text:
F2FlAsH fluorescence anisotropy, nucleotide titration on α13 + βγM (F2FlAsH-labeled)

Assay [2] relates to T2, αsshort + βγM (F2FlAsH-labeled).
T2 construct: gene GNAS; wild-type alpha (Kerafast, purified by GST-Ric8 association), reconstituted with beta1 / StrepII- and CCKACC-tagged gamma2 from Sf9
The settings on record: pH 7.8, 28°C, 2 mM MgCl2, 1 mM EDTA, 6 h; 15 nM F2FlAsH allosteric label. The text has this:
F2FlAsH fluorescence anisotropy, nucleotide titration on αsshort + βγM (F2FlAsH-labeled)

The subject of the next assay is T3, αi2βγM (F2FlAsH-labeled).
T3 construct: gene GNAI2; wild-type alpha co-expressed in Sf9 with beta1 / StrepII- and CCKACC-tagged gamma2; nucleotide-depleted heterotrimer
The settings on record: pH 7.8, 28°C, 2 mM MgCl2, 1 mM EDTA, 2 h; 5 nM F2FlAsH allosteric label, ~40 nM nucleotide-depleted heterotrimer. From the text: F2FlAsH fluorescence anisotropy, nucleotide titration on αi2βγM (F2FlAsH-labeled)

The next assay concerns T4, αi1βγM (F2FlAsH-labeled).
T4 construct: gene GNAI1; wild-type alpha co-expressed in Sf9 with beta1 / StrepII- and CCKACC-tagged gamma2; nucleotide-depleted heterotrimer
The conditions noted are these: pH 7.8, 28°C, 2 mM MgCl2, 1 mM EDTA, 2 h; 5 nM F2FlAsH allosteric label, ~40 nM nucleotide-depleted heterotrimer. The text has this:
F2FlAsH fluorescence anisotropy, nucleotide titration on αi1βγM (F2FlAsH-labeled)

For a further assay, the system named is T5, αi3βγM (F2FlAsH-labeled).
T5 construct: gene GNAI3; wild-type alpha co-expressed in Sf9 with beta1 / StrepII- and CCKACC-tagged gamma2; nucleotide-depleted heterotrimer
The settings on record: pH 7.8, 28°C, 2 mM MgCl2, 1 mM EDTA, 2 h; 5 nM F2FlAsH allosteric label, ~40 nM nucleotide-depleted heterotrimer. The text has this: F2FlAsH fluorescence anisotropy, nucleotide titration on αi3βγM (F2FlAsH-labeled)

Assay [3] relates to T6, αq + βγM (F2FlAsH-labeled).
T6 construct: gene GNAQ; wild-type alpha (Kerafast, purified by GST-Ric8 association), reconstituted with beta1 / StrepII- and CCKACC-tagged gamma2 from Sf9
The settings on record: pH 7.8, 28°C, 2 mM MgCl2, 1 mM EDTA, 6 h; 15 nM F2FlAsH allosteric label. The text has this:
F2FlAsH fluorescence anisotropy, nucleotide titration on αq + βγM (F2FlAsH-labeled)

For assay [4], the system named is T7, αslong + βγM (F2FlAsH-labeled).
T7 construct: gene GNAS; wild-type alpha (Kerafast, purified by GST-Ric8 association), reconstituted with beta1 / StrepII- and CCKACC-tagged gamma2 from Sf9
The conditions noted are these: pH 7.8, 28°C, 2 mM MgCl2, 1 mM EDTA, 6 h; 15 nM F2FlAsH allosteric label. From the text: F2FlAsH fluorescence anisotropy, nucleotide titration on αslong + βγM (F2FlAsH-labeled)

For assay [5], the system named is T8, αolf + βγM (F2FlAsH-labeled).
T8 construct: gene GNAL; wild-type alpha (Kerafast, purified by GST-Ric8 association), reconstituted with beta1 / StrepII- and CCKACC-tagged gamma2 from Sf9
The settings on record: pH 7.8, 28°C, 2 mM MgCl2, 1 mM EDTA, 6 h; 15 nM F2FlAsH allosteric label. From the text:
F2FlAsH fluorescence anisotropy, nucleotide titration on αolf + βγM (F2FlAsH-labeled)

Take `Nc1nc2c(ncn2[C@@H]2O[C@H](COP(=O)(O)OP(=O)(O)O)[C@@H](O)[C@H]2O)c(=O)[nH]1` [GDP]: the GDP was 4.98 ± 0.23 -log M in assay [1]; 4.85 ± 0.05 -log M in assay [2]; 8.17 ± 0.13 -log M in the assay with αi2βγM (F2FlAsH-labeled); 8.19 ± 0.16 -log M in the assay on αi1βγM (F2FlAsH-labeled); 8.08 ± 0.10 -log M with αi3βγM (F2FlAsH-labeled); 5.87 ± 0.06 -log M in assay [3]. The values for the GDP in assay [4] and in assay [5] were 4.72 ± 0.18 -log M and 5.00 ± 0.03 -log M, respectively.

As for `Nc1nc2c(ncn2[C@@H]2O[C@H](COP(=O)(O)O)[C@@H](O)[C@H]2O)c(=O)[nH]1` [GMP], the GMP in assay [2] is < 3 -log M; in the assay on αi2βγM (F2FlAsH-labeled), 4.45 ± 0.07 -log M; in the assay on αi1βγM (F2FlAsH-labeled), 5.89 ± 0.12 -log M; in the assay on αi3βγM (F2FlAsH-labeled), 5.29 ± 0.13 -log M; in assay [3], < 3 -log M; in assay [5], < 3 -log M.

`Nc1nc2c(ncn2[C@@H]2O[C@H](COP(=O)(O)OP(=O)(O)OP(O)(O)=S)[C@@H](O)[C@H]2O)c(=O)[nH]1` [GTPγS]: the GTPγS is on record as 5.65 ± 0.13 -log M in assay [1]; 7.06 ± 0.04 -log M in assay [2]; 8.02 ± 0.09 -log M with αi2βγM (F2FlAsH-labeled); 7.87 ± 0.06 -log M in the assay with αi3βγM (F2FlAsH-labeled); 6.27 ± 0.05 -log M in assay [3]; 7.47 ± 0.09 -log M in assay [4]. Moreover, in assay [5], the GTPγS is listed as 6.43 ± 0.04 -log M.

For `Nc1nc2c(ncn2[C@@H]2O[C@H](COP(=O)(O)OP(=O)(O)NP(=O)(O)O)[C@@H](O)[C@H]2O)c(=O)[nH]1` [GppNHp], the GppNHp in assay [1] is reported as 5.36 ± 0.14 -log M; in assay [2] it was 6.42 ± 0.04 -log M; in the assay on αi2βγM (F2FlAsH-labeled), 7.84 ± 0.14 -log M; with αi1βγM (F2FlAsH-labeled), 8.08 ± 0.04 -log M; in the assay with αi3βγM (F2FlAsH-labeled), 7.93 ± 0.07 -log M; in assay [3], 5.96 ± 0.07 -log M. For the same molecule, the GppNHp in assay [4] is given as 6.56 ± 0.07 -log M; in assay [5], 5.84 ± 0.05 -log M.
